From patent publication US6914045B2, “Glycopeptide antibiotics” (Wyeth Holdings Corporation, priority 2001, dated 2005)

Columns and labels:
[1] = anatomic pathology (histopathology of heart and kidney) in mice; format: in vivo; settings: CD-1 mice, 20 mg/kg intravenously daily for 9 days, necropsy day 10, microscopic histopathology
Method: Samples of tissues from necropsied mice were formalin-fixed, paraffin-embedded, sectioned, stained with hematoxylin and eosin, and examined microscopically. Histopathologic findings were recorded. These findings were subjectively graded on a scale corresponding to slight, mild, moderate, marked and severe as compared to untreated controls.

[2] = system: Staphylococcus aureus-SMITH (GC 4543); test: acute lethal infection in mice; format: in vivo; settings: acute lethal infection, female CD-1 mice, intraperitoneal challenge, intravenous 30 min. after infection, 7 day survival
Summary of the method: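 Survival at 7 days, pooled from three independent tests, yields ED50 values. Treatment is intravenous, 30 min after ip infection of female CD-1 mice, using an inoculum lethal to untreated controls within 24-48 hr.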

Enterococcus sp. = test: in vitro antibacterial evaluation, MIC by broth dilution; format: cell-based; settings: broth dilution, 18 hours at 35° C.
Summary of the method: (§1)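 MIC = lowest antibiotic concentration preventing visible growth; inoculum 5×10^5 CFU/mL; drug range 64-0.06 μg/mL; Muller-Hinton II […]; NCCLS M7-A2 guidance.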

Staphylococcus sp. = test: as above; format: cell-based; settings: broth dilution, 18 hours at 35° C.
Summary of the method: as §1

Streptococcus sp. = test: as above; format: cell-based; settings: broth dilution, 18 hours at 35° C.
Summary of the method: as §1

Escherichia coli = test: as above; format: cell-based; settings: 18 hours at 35° C.

CC(c1ccccc1)C1NC(=O)CNC(=O)C(CO)NC(=O)C(CC2CNC(=N)N2C2OC(CO)C(O)C(O)C2O)NC(=O)C(CC2CNC(=N)N2)NC(=O)C(Cc2ccc(OC3OC(CO)C(OC4OC5COC6(OC5C(O)C4O)C4CC5CC(C4)CC6C5)C(O)C3O)cc2)NC1=O (stereo not drawn) [Example 219, Cyclo[3-(2-iminoimidazolidin-4-yl)alanyl-3-(3-hexopyranosyl-2-iminoimidazolidin-4-yl)-alanylserylglycyl-β-methylphenylalanyl-O-[4-O-[4,6-O-(2-adamantylidene)hexopyranosyl]-hexopyranosyl]tyrosyl]]
16 µg/mL: MIC Enterococcus faecalis (ATCC 29212) (Enterococcus sp.) | MIC Enterococcus faecalis (GC 3059) (Enterococcus sp.) | MIC Enterococcus faecalis (ATCC 29212) (Enterococcus sp.; inoculum 5×10^5 CFU/mL, strain ATCC 29212) | MIC Enterococcus faecalis (GC 3059) (Enterococcus sp.; inoculum 5×10^5 CFU/mL, strain GC 3059)
0: Anatomical Pathology (Day 10), Heart [1]
2 µg/mL: MIC Staphylococcus aureus (GC 3051) (Staphylococcus sp.; strain GC 3051) | MIC Staphylococcus aureus (GC 3053) (Staphylococcus sp.; strain GC 3053) | MIC Staphylococcus aureus (GC 4541) (Staphylococcus sp.; strain GC 4541) | MIC Staphylococcus aureus (GC 4542) (Staphylococcus sp.; strain GC 4542) | MIC Staphylococcus aureus-SMITH (GC 4543) (Staphylococcus sp.; strain GC 4543) | MIC Staphylococcus aureus (GC 4545) (Staphylococcus sp.; strain GC 4545) | MIC Staphylococcus haemolyticus (GC 4546) (Staphylococcus sp.; strain GC 4546) | MIC Coagulase Negative Staphylococcus (GC 4547) (Staphylococcus sp.; strain GC 4547) | MIC Coagulase Negative Staphylococcus (GC 4548) (Staphylococcus sp.; strain GC 4548) | MIC Coagulase Negative Staphylococcus (GC 4549) (Staphylococcus sp.; strain GC 4549) | MIC Streptococcus agalactiae (GC 4564) (Streptococcus sp.) | MIC Streptococcus pneumoniae (GC 4565) (Streptococcus sp.) | MIC Streptococcus pyogenes (GC 4563) (Streptococcus sp.) | MIC Streptococcus pyogenes (GC 4563) (Streptococcus sp.; inoculum 5×10^5 CFU/mL, strain GC 4563) | MIC Streptococcus agalactiae (GC 4564) (Streptococcus sp.; inoculum 5×10^5 CFU/mL, strain GC 4564) | MIC Streptococcus pneumoniae (GC 4565) (Streptococcus sp.; inoculum 5×10^5 CFU/mL, strain GC 4565)
+++: Anatomical Pathology (Day 10), Kidney [1]
0.5 mg/kg: median effective dose (ED50), Staphylococcus aureus-SMITH (GC 4543) [2]
4 µg/mL: MIC Enterococcus avium (GC 4558) (Enterococcus sp.) | MIC Enterococcus faecium (GC 4557) (Enterococcus sp.) | MIC Enterococcus faecium (GC 4557) (Enterococcus sp.; inoculum 5×10^5 CFU/mL, strain GC 4557) | MIC Enterococcus avium (GC 4558) (Enterococcus sp.; inoculum 5×10^5 CFU/mL, strain GC 4558) | MIC Staphylococcus aureus (ATCC 29213) (Staphylococcus sp.; strain ATCC 29213) | MIC Staphylococcus aureus (GC 1131) (Staphylococcus sp.; strain GC 1131) | MIC Coagulase Negative Staphylococcus (GC 4551) (Staphylococcus sp.; strain GC 4551) | MIC Escherichia coli (GC 4560) (Escherichia coli)
64 µg/mL: MIC Escherichia coli (ATCC 25922) (Escherichia coli) | MIC Escherichia coli (GC 4559) (Escherichia coli)
8 µg/mL: MIC Enterococcus faecalis (GC 2242) (Enterococcus sp.) | MIC Enterococcus faecalis (GC 2691) (Enterococcus sp.) | MIC Enterococcus faecalis (GC 4552) (Enterococcus sp.) | MIC Enterococcus faecalis (GC 4553) (Enterococcus sp.) | MIC Enterococcus faecalis (GC 4554) (Enterococcus sp.) | MIC Enterococcus faecalis (GC 6189) (Enterococcus sp.) | MIC Enterococcus faecium (GC 2243) (Enterococcus sp.) | MIC Enterococcus faecium (GC 4556) (Enterococcus sp.) | MIC Enterococcus faecalis (GC 2242) (Enterococcus sp.; inoculum 5×10^5 CFU/mL, strain GC 2242) | MIC Enterococcus faecium (GC 2243) (Enterococcus sp.; inoculum 5×10^5 CFU/mL, strain GC 2243) | MIC Enterococcus faecalis (GC 2691) (Enterococcus sp.; inoculum 5×10^5 CFU/mL, strain GC 2691) | MIC Enterococcus faecalis (GC 4552) (Enterococcus sp.; inoculum 5×10^5 CFU/mL, strain GC 4552) | MIC Enterococcus faecalis (GC 4553) (Enterococcus sp.; inoculum 5×10^5 CFU/mL, strain GC 4553) | MIC Enterococcus faecalis (GC 4554) (Enterococcus sp.; inoculum 5×10^5 CFU/mL, strain GC 4554) | MIC Enterococcus faecium (GC 4556) (Enterococcus sp.; inoculum 5×10^5 CFU/mL, strain GC 4556) | MIC Enterococcus faecalis (GC 6189) (Enterococcus sp.; inoculum 5×10^5 CFU/mL, strain GC 6189) | MIC Staphylococcus aureus (GC 4544) (Staphylococcus sp.; strain GC 4544)
0.5 µg/mL: MIC Streptococcus pneumoniae (ATCC 6301) (Streptococcus sp.) | MIC Streptococcus pneumoniae (ATCC 6301) (Streptococcus sp.; inoculum 5×10^5 CFU/mL, strain ATCC 6301)
1 µg/mL: MIC Coagulase Negative Staphylococcus (GC 6257) (Staphylococcus sp.; strain GC 6257) | MIC Streptococcus pneumoniae (GC 1894) (Streptococcus sp.) | MIC Streptococcus pneumoniae (GC 1894) (Streptococcus sp.; inoculum 5×10^5 CFU/mL, strain GC 1894)
